This note sets out measurements from patent US12391660B2, “Heteroaromatic acetamide derivative, and preparation and use thereof” (Hangzhou Westan Pharmaceutical Technology Co., Ltd, priority 2019, dated 2025).

Each structure is given as a SMILES string.

The test system of the assay is asthmatic rats. The experiment in a line: Ovalbumin-induced asthma rat model (HE staining, lung tissue inflammation area, airway inflammation score). The class given is in vivo, SD rats. From the text: 4. Effects of Compounds on Ovalbumin-Induced Asthma in Mouse and Rat Models
SPF-grade SD male rats (purchased from Zhejiang Academy of Medical Sciences, license number SCXK (Zhejiang) 2019-0002) with a body weight of 160-180 g; and SPF-grade female BABL/c mice (purchased from Zhejiang Weitong Lihua Experimental Animals Technology Co., Ltd., license number SCXK (Zhejiang) 2019-0001) with a body weight of 16-18 g were used. The above animals were raised by the Experimental Animal Center of Zhejiang Academy of Traditional Chinese Medicine.
Formulation of compound solution: compound was vortexed in a solvent system, dissolved by ultrasound, and prepared into a solution at a corresponding concentration, which was prepared just before use (the solvent system was composed of 5% Solutol HS 15, 5% DMSO and 90% physiological saline).
BABL/c mice or SD rats were randomly divided into: normal control group, model control group, dexamethasone group (0.72 mg/kg), and the respective test compound groups (one group for each dose), 10 mice in each group; 6 rats in each group.
Sensitization of rats: On Day 1 and Day 8, the model control group and the respective drug administration groups were intraperitoneally injected with 1 ml of 10% OVA sensitizing solution, and the normal group was intraperitoneally injected with an equal volume of normal saline.
Rat: from Day 15, the dexamethasone group and the respective test compound groups were intraperitoneally injected, 20 minutes before challenge, with the corresponding drugs with an injection volume of 0.3 ml/100 g; the model control group was intraperitoneally injected, 20 minutes before challenge, with an equal volume of solvent system; and the normal control group was not treated. Administration was conducted for 7 consecutive days. […]
The rat was anesthetized with 10% urethane at 1.3 ml/100 g volume, and the left lung tissue was taken and fixed in 4% neutral formaldehyde, paraffin-embedded according to routine operation, sectioned for HE staining. […] NIS-Elements D 3.2 software was used to manually integrate and measure the total area of lung tissue sections and the inflammation area under all fields of view, the total areas under each field of view were accumulated, and the percentage of the cumulative area of inflammation in the total area was calculated, wherein the percentage of inflammation area=cumulative area of inflammation/total area×100%.
All data were expressed as mean±standard deviation (x±s), and the data were processed by SPSS 20.0 statistical software. […]

Setting [1] is: intraperitoneal injection, vs model group, P<0.05, 0.01.

`N#Cc1ccc(NC2(C(=O)N3CCN(c4ccc(C(F)(F)F)cc4)CC3)CCCC2)cc1` [Compound 1, 4-((1-(4-(4-(trifluoromethyl)phenyl)piperazine-1-carbonyl)cyclopentyl)amino)benzonitrile]: the “lung tissue inflammation and inflammatory cell infiltration around the airway (HE x40)” value (compared with the model group) is given as “significant improvement”. Further, under setting [1], the airway inflammation score entry was “significantly decreased” and the “lung tissue inflammation area” value is on record as “significantly decreased”.
